Experimental data taken from PubChem BioAssay AID1963967 (Molecular Pharmacology Branch, DTP, NCI, 2024).

Test system: 855422-203-R-J1-PDC spheroids with HUVEC/MSC, viability
Assay: Anticancer human tumor 855422-203-R-J1-PDC patient-derived bladder carcinoma cell line growth inhibition [PI3K]
Conditions: for IC50: curve of first compound; for viability, T/C: stronger effect = lower value; active means viability on the fitted dose curve at most 10% of control; inactive means the rest
From the text: Combinatorial screen of targeted agents with the PI3K inhibitors inavolisib, alpelisib, duvelisib, and copanlisib in multi-cell type tumor spheroids
A high-throughput screen of multi-cell type tumor spheroids was designed to identify active combinations of targeted small molecules and PI3K pathway inhibitors. Complex spheroids include a stromal component modeled by human endothelial cells (HUVEC) and fibroblasts modeled by human mesenchymal stem cells (MSCs). The concentration ranges selected for each drug and investigational agent were based upon clinically achievable concentrations if the clinical Cmax of the agent was known.
Compounds. The drugs and investigational agents: inavolisib (NSC800729), alpelisib (NSC765974), duvelisib (NSC772469), copanlisib (NSC816437), ipatasertib (NSC767898), afuresertib (NSC778305), talazoparib (NSC767125), sapanisertib (NSC764658), selumetinib (NSC741078), tovorafenib (DAY101, NSC766906), vemurafenib (NSC761431), ravoxertinib (NSC781343), sotorasib (NSC818433), MRTX1133 (NSC 836407), abemaciclib (NSC 768073), palbociclib (NSC758247), venetoclax (NSC 766270), SY5609 (NSC837396), enzalutamide (NSC755605), and darolutamide (NSC825331), were obtained from the National Cancer Institute (NCI) Developmental Therapeutics Program Chemical Repository. The FDA-approved anticancer drug set is available from the NCI Developmental Therapeutics Program. […] The stock solutions were prepared in dimethyl sulfoxide (DMSO, Sigma-Aldrich, St. Louis, MO, cat. D2650) at 800-fold the tested concentration and stored at -70 degrees C prior to their use. All drugs and investigational agents were tested over a range starting from a high concentration at or near the clinical Cmax and decreasing in half-log increments. If the clinical Cmax for an agent had not been determined, the highest concentration tested was 10 microM.
Cell Culture. All cells were maintained in an incubator at 37 degrees C and 5% CO2 with 95% humidity. The PDC lines were cultured according to standard operating procedures established by the NCI PDMR (https://pdmr.cancer.gov/sops/default.htm). All PDCs were thawed and cultured in Matrigel-coated flasks prepared with a working solution of 1X Ham's F-12 nutrient mix, without supplementation (Invitrogen, Waltham, MA, cat. 11765054), 100 U/mL penicillin-streptomycin (Invitrogen, cat. 15140122), and 2.5% Matrigel (Corning Inc., Corning, NY, cat. 354248) for the first three passages. The 354836-022-R-J1-PDC, 475296-252-R-J1-PDC, and 997726-040-R-J2-PDC lines were cultured in 6A media, which includes advanced DMEM/F-12 (Thermo Fisher Scientific, cat. 12634028), 10 mM HEPES (Thermo Fisher Scientific, cat. 15630080), 1X GlutaMAX supplement (Thermo Fisher Scientific, cat. 35050061), 0.1 mg/mL primocin (InvivoGen, San Diego, CA, cat. ant-pm-2), 10% defined fetal bovine serum, heat inactivated (HyClone Laboratories Inc., Logan, UT, cat. SH30070.03HI), 50% L-WRN conditioned media (ATCC, cat. CRL-3276), 1.25 mM N-Acetyl-L-cysteine (Sigma-Aldrich, cat. A9165), 10 mM nicotinamide (Sigma-Aldrich, cat. N0636), 1X B-27 supplement (Thermo Fisher Scientific, cat. 17504044), 1X N-2 supplement (Thermo Fisher Scientific, cat. 17502048), and 10 microM Y-27632 dihydrochloride (Tocris Bioscience, Bristol, United Kingdom, cat. 1254). The 624824-186-R-J2-PDC line was cultured in 6C/Colon 1B media, which includes all 6A media components plus 50 ng/mL human EGF recombinant protein (Thermo Fisher Scientific, cat. PHG0311). […]

[1] = second compound 0.00316 µM, first compound 0.0316 µM
[2] = second compound 0.00316 µM, first compound 0.1 µM
[3] = second compound 0.00316 µM, first compound 0.316 µM
[4] = second compound 0.00316 µM, first compound 1 µM
[5] = second compound 0.00316 µM, first compound 3.16 µM
[6] = second compound 0.00316 µM, first compound 10 µM
[7] = second compound 0.01 µM, first compound 0.0316 µM
[8] = second compound 0.01 µM, first compound 0.1 µM
[9] = second compound 0.01 µM, first compound 0.316 µM
[10] = second compound 0.01 µM, first compound 1 µM
[11] = second compound 0.01 µM, first compound 3.16 µM
[12] = second compound 0.01 µM, first compound 10 µM
[13] = second compound 0.0316 µM, first compound 0.0316 µM
[14] = second compound 0.0316 µM, first compound 0.1 µM
[15] = second compound 0.0316 µM, first compound 0.316 µM
[16] = second compound 0.0316 µM, first compound 1 µM
[17] = second compound 0.0316 µM, first compound 3.16 µM
[18] = second compound 0.0316 µM, first compound 10 µM
[19] = second compound 0.1 µM, first compound 0.0316 µM
[20] = second compound 0.1 µM, first compound 0.1 µM
[21] = second compound 0.1 µM, first compound 0.316 µM
[22] = second compound 0.1 µM, first compound 1 µM
[23] = second compound 0.1 µM, first compound 3.16 µM
[24] = second compound 0.1 µM, first compound 10 µM
[25] = second compound 0.316 µM, first compound 0.0316 µM
[26] = second compound 0.316 µM, first compound 0.1 µM
[27] = second compound 0.316 µM, first compound 0.316 µM
[28] = second compound 0.316 µM, first compound 1 µM
[29] = second compound 0.316 µM, first compound 3.16 µM
[30] = second compound 0.316 µM, first compound 10 µM
[31] = second compound 1 µM, first compound 0.0316 µM
[32] = second compound 1 µM, first compound 0.1 µM
[33] = second compound 1 µM, first compound 0.316 µM
[34] = second compound 1 µM, first compound 1 µM
[35] = second compound 1 µM, first compound 3.16 µM
[36] = second compound 1 µM, first compound 10 µM
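Further: agents incubated with spheroids for one week before read-out.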
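Wherever viability, T/C is given: 100% = DMSO vehicle-treated control wells.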

Cn1cnc2c(F)c(Nc3ccc(Br)cc3Cl)c(C(=O)NOCCO)cc21 + COc1c(OCCCN2CCOCC2)ccc2c3n(c(=NC(=O)c4cnc(N)nc4)nc12)CCN3
inactive: viability, T/C (second compound 0.00316 µM, first compound 0.00949 µM) 94.1% | viability, T/C (second compound 0.00316 µM, first compound 0.03 µM) 88.1% | viability, T/C (second compound 0.00316 µM, first compound 0.0949 µM) 91.4% | viability, T/C (second compound 0.00316 µM, first compound 0.3 µM) 93.5% | viability, T/C (second compound 0.00316 µM, first compound 0.949 µM) 90.1% | viability, T/C (second compound 0.00316 µM, first compound 3 µM) 41.2% | viability, T/C (second compound 0.01 µM, first compound 0.00949 µM) 73.6% | viability, T/C (second compound 0.01 µM, first compound 0.03 µM) 90.6% | viability, T/C (second compound 0.01 µM, first compound 0.0949 µM) 82% | viability, T/C (second compound 0.01 µM, first compound 0.3 µM) 85.9% | viability, T/C (second compound 0.01 µM, first compound 0.949 µM) 66.2% | viability, T/C (second compound 0.01 µM, first compound 3 µM) 29.1% | viability, T/C (second compound 0.0316 µM, first compound 0.00949 µM) 64% | viability, T/C (second compound 0.0316 µM, first compound 0.03 µM) 64% | viability, T/C (second compound 0.0316 µM, first compound 0.0949 µM) 60.8% | viability, T/C (second compound 0.0316 µM, first compound 0.3 µM) 47.1% | viability, T/C (second compound 0.0316 µM, first compound 0.949 µM) 34.6% | viability, T/C (second compound 0.0316 µM, first compound 3 µM) 12.7% | viability, T/C (second compound 0.1 µM, first compound 0.00949 µM) 30.8% | viability, T/C (second compound 0.1 µM, first compound 0.03 µM) 26.1% | viability, T/C (second compound 0.1 µM, first compound 0.0949 µM) 22.2% | viability, T/C (second compound 0.1 µM, first compound 0.3 µM) 21.8% | viability, T/C (second compound 0.1 µM, first compound 0.949 µM) 10.2%
1570 nM: IC50 (second compound 0.01 µM)
active: viability, T/C (second compound 0.1 µM, first compound 3 µM) 2.98% | viability, T/C (second compound 0.316 µM, first compound 0.00949 µM) 8.62% | viability, T/C (second compound 0.316 µM, first compound 0.03 µM) 6.53% | viability, T/C (second compound 0.316 µM, first compound 0.0949 µM) 5.43% | viability, T/C (second compound 0.316 µM, first compound 0.3 µM) 4.82% | viability, T/C (second compound 0.316 µM, first compound 0.949 µM) 2.2% | viability, T/C (second compound 0.316 µM, first compound 3 µM) 0.34% | viability, T/C (second compound 1 µM, first compound 0.00949 µM) 3.01% | viability, T/C (second compound 1 µM, first compound 0.03 µM) 3.36% | viability, T/C (second compound 1 µM, first compound 0.0949 µM) 1.65% | viability, T/C (second compound 1 µM, first compound 0.3 µM) 2.9% | viability, T/C (second compound 1 µM, first compound 0.949 µM) 0.38% | viability, T/C (second compound 1 µM, first compound 3 µM) 0.99%
283 nM: IC50 (second compound 0.0316 µM)
< 9.49 nM: IC50 (second compound 0.1 µM) | IC50 (second compound 0.316 µM) | IC50 (second compound 1 µM)
2440 nM: IC50 (second compound 0.00316 µM)

Cn1nccc1Nc1nccc(-c2ccn(C(CO)c3ccc(Cl)c(F)c3)c(=O)c2)n1 (stereo unspecified) + CC(Nc1ccc2c(c1)OCCn1cc(N3C(=O)OCC3C(F)F)nc1-2)C(N)=O
7220 nM: IC50 (second compound 0.00316 µM)
796 nM: IC50 (second compound 0.316 µM)
active: viability, T/C [36] 8.01%
5550 nM: IC50 (second compound 0.0316 µM)
3780 nM: IC50 (second compound 0.1 µM)
inactive: viability, T/C [1] 103% | viability, T/C [2] 84.7% | viability, T/C [3] 95.7% | viability, T/C [4] 89.7% | viability, T/C [5] 80.7% | viability, T/C [6] 38.3% | viability, T/C [7] 98.4% | viability, T/C [8] 96.2% | viability, T/C [9] 93.5% | viability, T/C [10] 82.8% | viability, T/C [11] 76% | viability, T/C [12] 37% | viability, T/C [13] 62.7% | viability, T/C [14] 82.1% | viability, T/C [15] 89.7% | viability, T/C [16] 82.8% | viability, T/C [17] 70.1% | viability, T/C [18] 29.1% | viability, T/C [19] 72.4% | viability, T/C [20] 79.4% | viability, T/C [21] 79.1% | viability, T/C [22] 64.7% | viability, T/C [23] 56.8% | viability, T/C [24] 20.2% | viability, T/C [25] 53.6% | viability, T/C [26] 52.5% | viability, T/C [27] 51.8% | viability, T/C [28] 49.5% | viability, T/C [29] 29.3% | viability, T/C [30] 10.6% | viability, T/C [31] 35.9% | viability, T/C [32] 32.2% | viability, T/C [33] 29.9% | viability, T/C [34] 26.4% | viability, T/C [35] 17.3%
< 31.6 nM: IC50 (second compound 1 µM)
6700 nM: IC50 (second compound 0.01 µM)

C[C@@H](NC(=O)c1ncnc(N)c1Cl)c1ncc(C(=O)Nc2cc(C(F)(F)F)c(Cl)cn2)s1 + CC(Nc1ccc2c(c1)OCCn1cc(N3C(=O)OCC3C(F)F)nc1-2)C(N)=O
> 10000 nM: IC50 (second compound 0.00316 µM) | IC50 (second compound 0.01 µM) | IC50 (second compound 0.0316 µM) | IC50 (second compound 0.1 µM)
< 31.6 nM: IC50 (second compound 0.316 µM) | IC50 (second compound 1 µM)
inactive: viability, T/C [1] 106% | viability, T/C [2] 83% | viability, T/C [3] 122% | viability, T/C [4] 83.3% | viability, T/C [5] 116% | viability, T/C [6] 109% | viability, T/C [7] 99.8% | viability, T/C [8] 86.2% | viability, T/C [9] 85.4% | viability, T/C [10] 84.9% | viability, T/C [11] 118% | viability, T/C [12] 98.4% | viability, T/C [13] 79.8% | viability, T/C [14] 85.4% | viability, T/C [15] 102% | viability, T/C [16] 83% | viability, T/C [17] 95.5% | viability, T/C [18] 69.3% | viability, T/C [19] 58.7% | viability, T/C [20] 61.5% | viability, T/C [21] 80% | viability, T/C [22] 68% | viability, T/C [23] 81.8% | viability, T/C [24] 35% | viability, T/C [25] 47.3% | viability, T/C [26] 49.1% | viability, T/C [27] 49.7% | viability, T/C [28] 54% | viability, T/C [29] 43.4% | viability, T/C [30] 23.9% | viability, T/C [31] 34.8% | viability, T/C [32] 40.4% | viability, T/C [33] 32.6% | viability, T/C [34] 33.6% | viability, T/C [35] 30.9% | viability, T/C [36] 14.1%
